# Source: patent US20160060285A1, “Aminoglycosides, Methods of Synthesis, and Associated Applications” (UTAH STATE UNIVERSITY, priority 2010, published 2016)
# Read-outs that look alike come from different tables or passages of the source.
# How the values were obtained:
# [1] = tested on: Escherichia coli ATCC 25922; test: Bacterial growth inhibition (MIC) test, microtiter plate, CLSI protocol; format: cell-based; conditions: E. coli 25922, Luria-Bertani medium, 37° C., 24 hours
# [2] = tested on: Staphylococcus aureus ATCC25923; test: as above; format: cell-based
# [3] = tested on: Fusarium graminearum B4-5A; test: microbe, parasite or virus in culture; format: cell-based
# [4] = tested on: Candida albicans ATCC64124 (azole-resistant); test: microbe, parasite or virus in culture; format: cell-based; conditions: for MIC: ATCC64124, 48 h
# [5] = tested on: Candida albicans ATCC MYA-2876 (azole sensitive); test: Fungal MIC and MFC, microbroth dilution assay (M27-A3); format: cell-based; conditions: C. albicans MYA2876 (azole sensitive); for MIC: RPMI 1640, 35° C., 48 hours
# [6] = tested on: azole-resistant Candida albicans ATCC 64124; test: Antifungal synergism by checkerboard analysis, K-compound and azole combinations; format: cell-based; conditions: for MIC: Candida albicans; for MIC / MIC alone: compound alone; for MIC with K408: MIC of the labelled azole when combined with K408; for MIC with K4608: MIC of the labelled azole when combined with K4608; for FIC Index (K408 with azole): combination of K408 with the labelled azole; for FIC Index (K408 with azole) / FIC Index (K4608 with azole): synergistic if ≦0.5, indifferent if >0.5-4, antagonistic if >4; for FIC Index (K4608 with azole): combination of K4608 with the labelled azole; for MIC alone: K408 checkerboard table; for MIC K408 with azole: MIC of K408 when combined with the labelled azole
# HeLa cells = test: Cell viability assay (MTT), cytotoxicity test; format: cell-based, human; conditions: for Viable Cells Percentage Compared to Control: MTT
# Description: HeLa cells were grown in commercial DMEM 1× (Gibco) with 10% fetal bovine serum (FBS, Gibco), 100 U/mL penicillin, and 100 μg/mL streptomycin at 37° C. and 5% CO2. The cells were allowed to adhere for 24 h before drug treatment.
# The cells were seeded in 96-well microtiter plates (10,000/200 μL). After 24 h of incubation in the media, cells were treated with various concentrations of K608, K4608 and K408 (0.0, 1.0, 10.0, 100.0, 1000 μg/mL and Trition 1×) for 48 h. 20 μL of MTT stock solution (5 mg/mL) was added to each well and incubated for 4 h at 37° C. Upon completion of incubation, the media was carefully removed and washed twice with […] of pbs buffer. Then, 200 μL of DMSO was added to each well; agitated on orbital shaker for 15 min., and the absorbance at 570 nm with 670 nm filter was determined with a microplate reader (Synergy H4). The results are expressed as viability compared with that of control. The experiment was carried out in triplicate in three independent experiments.
# [7] = S. aureus 25923, 37° C., 24 hours
# [8] = F. graminearum B4-5A, RPMI 1640, 35° C., 48 hour
# [9] = Staphylococcus aureus, ATCC25923, S. aureus 25923, 37° C., 24 hours, read-out: MIC
# [10] = Fusarium graminearum, B45A, 48 h
# [11] = ATCC64124, K408 checkerboard table, first of two separate experiments
# [12] = ATCC64124, K408 checkerboard table, second of two separate experiments
# [13] = first of two separate experiments
# [14] = second of two separate experiments
structure (smiles),measurement,setting,value
CCCCCCOCC1OC(OC2C(N)CC(N)C(OC3OC(CN)C(O)C(O)C3O)C2O)C(O)C(N)C1OCCCCCC (stereo not shown) [Compound K4606],MIC,[1],>250 mg per L
same,MIC,[2]; [7],32-125 mg per L
same,MIC,[3]; [8],3.9 mg per L
CCCCCCCCOC1[C@@H](N)[C@@H](O)C(O[C@@H]2C(N)CC(N)C(O[C@H]3OC(CN)[C@@H](O)[C@H](O)C3O)[C@@H]2O)O[C@@H]1CO (stereo partly shown) [Compound K408],MIC,[2]; [9],125 µg/mL
same,MIC,[3]; [10],31.3 µg/mL
same,MFC,[4]; ATCC64124,9.8 µg/mL
same,MIC,[4],9.8 µg/mL
same,MIC,[5],1.2 µg/mL
same,MFC,[5]; subculture on Sabouraud dextrose agar after MIC test,2.4 µg/mL
same,MIC,[6]; [11],31.2 µg/mL
same,MIC,[6]; [12],31.2 µg/mL
same,toxicity to human cervical cancer cell line HeLa,"HeLa cells; 1.0 to 1000 μg/mL, 48 h",not toxic
same,Viable Cells Percentage Compared to Control,"HeLa cells; HeLa, 1 μg/mL, 48 h",139.37%
same,Viable Cells Percentage Compared to Control,"HeLa cells; HeLa, 10 μg/mL, 48 h",156.92%
same,Viable Cells Percentage Compared to Control,"HeLa cells; HeLa, 100 μg/mL, 48 h",144.82%
same,Viable Cells Percentage Compared to Control,"HeLa cells; HeLa, 1000 μg/mL, 48 h",138.39%
same,effect on growth of cells (number of viable cells),"HeLa cells; HeLa, wells treated with compound",promoted growth of cells
"NC[C@H]1O[C@H](O[C@H]2[C@H](O)[C@@H](O[C@H]3O[C@H](CO)[C@@H](O)[C@H](N)[C@H]3O)[C@H](N)C[C@@H]2N)[C@H](O)[C@@H](O)[C@@H]1O [Kanamycin, reference compound]",MIC,"[1]; Escherichia coli, ATCC25922, read-out: MIC",1 to 4 µg/mL
same,MIC,[2]; [9],0.5 to 1 µg/mL
same,MIC,[3]; [10],> 500 µg/mL
same,MIC,[4],> 500 µg/mL
same,MIC,[5],250 to 500 µg/mL
CCCCCCCCCCOC1C(CO)OC(OC2C(N)CC(N)C(OC3OC(CN)C(O)C(O)C3O)C2O)C(O)C1N (stereo not shown) [Compound K410],MIC,[1],>250 mg per L
same,MIC,[2]; [7],125 mg per L
same,MIC,[3]; [8],62.5 mg per L
CCCCCCCCCCCCOCC1OC(OC2C(N)CC(N)C(OC3OC(CN)C(O)C(O)C3O)C2O)C(O)C(N)C1OCCCCCCCCCCCC (stereo not shown) [Compound K4612],MIC,[1],>250 mg per L
same,MIC,[2]; [7],64 mg per L
same,MIC,[3]; [8],>500 mg per L
CC[C@@H]([C@H](C)O)n1ncn(-c2ccc(N3CCN(c4ccc(OC[C@@H]5CO[C@@](Cn6cncn6)(c6ccc(F)cc6F)C5)cc4)CC3)cc2)c1=O [posaconazole],MIC,[6]; [11],62.5 µg/mL
same,MIC,[6]; [12],250 µg/mL
same,MIC with K408,[6]; [13],"0.24, 0.24 mg L^−1"
same,MIC with K408,[6]; [14],"0.24, 0.24 mg L^−1"
same,MIC with K4608,[6]; one experiment,0.49 µg/mL
same,FIC Index (K408 with azole),[6]; [13],0.38
same,FIC Index (K408 with azole),[6]; [14],0.07
same,FIC Index (K4608 with azole),[6]; one experiment,<0.13
CCCCCCCOC1C(CO)OC(OC2C(N)CC(N)C(OC3OC(CN)C(O)C(O)C3O)C2O)C(O)C1N (stereo not shown) [Compound K407],MIC,[1],>250 mg per L
same,MIC,[2],125 mg per L
same,MIC,[3]; [8],125 mg per L
Clc1ccccc1C(c1ccccc1)(c1ccccc1)n1ccnc1 [chlotrimazole],MIC alone,[6]; [13],3.91 µg/mL
same,MIC alone,[6]; [14],7.81 µg/mL
same,MIC K408 with azole,[6]; [13],3.91 µg/mL
same,MIC K408 with azole,[6]; [14],1.95 µg/mL
same,MIC K4608 with azole,"[6]; MIC of K4608 when combined with the labelled azole, one experiment",1.95 µg/mL
same,MIC with K408,[6]; [13],0.24 mg/L
same,MIC with K408,[6]; [14],0.49 mg/L
same,MIC with K4608,[6]; one experiment,3.91 µg/mL
same,FIC Index (K408 with azole),[6]; [13],0.37
same,FIC Index (K408 with azole),[6]; [14],0.13
same,FIC Index (K4608 with azole),[6]; one experiment,0.19
CCCCOC1C(CO)OC(OC2C(N)CC(N)C(OC3OC(CN)C(O)C(O)C3O)C2O)C(O)C1N (stereo not shown) [Compound K404],MIC,[2]; [7],4-16 mg per L
same,MIC,[3]; [8],>500 mg per L
OC(Cn1cncn1)(Cn1cncn1)c1ccc(F)cc1F [fluconazole],MIC,[6]; [11],250 µg/mL
same,MIC,[6]; [12],250 µg/mL
same,MIC,"[6]; ATCC64124, K4608 checkerboard table",> 250 µg/mL
same,MIC with K408,[6]; [13],"15.63, 15.63 mg L^−1"
same,MIC with K408,[6]; [14],"15.63, 15.63 mg L^−1"
same,MIC with K4608,[6]; one experiment,31.25 µg/mL
same,FIC Index (K408 with azole),[6]; [13],"0.31, 0.31"
same,FIC Index (K408 with azole),[6]; [14],"0.31, 0.31"
same,FIC Index (K4608 with azole),[6]; one experiment,0.25
CCCCCCCCCOC1C(CO)OC(OC2C(N)CC(N)C(OC3OC(CN)C(O)C(O)C3O)C2O)C(O)C1N (stereo not shown) [Compound K409],MIC,[1],>250 mg per L
same,MIC,[2]; [7],>250 mg per L
same,MIC,[3]; [8],62.5 mg per L
